Patent EP4603105A1, “PHARMACEUTICAL COMPOSITION CONTAINING CYCLIC COMPOUND HAVING SELECTIVE KRAS INHIBITORY EFFECT AGAINST HRAS AND NRAS” (CHUGAI SEIYAKU KABUSHIKI KAISHA, priority 2022, dated 2024)
pIC50: −log10 of the molar value. Read-outs that look alike come from different tables or passages of the source. Where a SMILES comes first, the peptide text is derived from it. Bridges are numbered along the chain shown (N, C = ends). [ ]: non-standard residue; d: D form. The star is where a group is joined. hPhe(3-Cl-4-CF3) = N[C@@H](CCc1ccc(C(F)(F)F)c(Cl)c1)C(=O)O; NPrPhe(4-CF3) = CCCN[C@@H](Cc1ccc(C(F)(F)F)cc1)C(=O)O; NMeGly(cPent) = CN[C@H](C(=O)O)C1CCCC1; Pro(4,4-F2) = O=C(O)[C@@H]1CC(F)(F)CN1; Pro(4S-Me) = C[C@@H]1CN[C@H](C(=O)O)C1; NMeD = CN[C@@H](CC(=O)O)C(=O)O; NMeL = CN[C@@H](CC(C)C)C(=O)O; Morpholide = C1CN(*)CCO1; NMeA = CN[C@@H](C)C(=O)O; Ac5c = NC1(C(=O)O)CCCC1; Aze = O=C(O)[C@@H]1CCN1; NcPrGly = O=C(O)CNC1CC1; Ac4c = NC1(C(=O)O)CCC1; X11 = CC1(C)CCN(*)C1; Sar = CNCC(=O)O

Assays:
[1] = target: GDP-bound NRAS wild-type protein (Homo sapiens, UniProt P01111); experiment: Binding to NRAS by surface plasmon resonance (SPR), KD and KD ratio to KRAS
Method in brief: (§1)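 Compound binding is evaluated by SPR single-cycle kinetics, with concentrations added intermittently from low to high for 75 s each. Target surfaces carry GDP-loaded biotinylated Avi-RAS at about 100–300 RU, regenerated after each cycle; temperature 30°C. A 1:1 binding model gives KD.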

HRAS wild-type protein = HRAS wild-type protein (Homo sapiens, UniProt P01112); experiment: Binding to HRAS by surface plasmon resonance (SPR), KD and KD ratio to KRAS
Method in brief: as §1

[2] = test system: human lung cancer strain NCI-H441; format: cell-based
Method in brief: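 Proliferation was scored by […] measured after the reagent was added to cultures kept at 37°C in 5% carbon dioxide.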

[3] = ratio of the KD value with respect to GDP-bound NRAS wild-type protein to the KD value with respect to KRAS
[4] = ratio of the KD value with respect to HRAS wild-type protein to the KD value with respect to KRAS
[5] = ratio of KD value for GDP-bound NRAS wild-type protein to KD value for KRAS (SPR)
[6] = ratio of KD value for HRAS wild-type protein to KD value for KRAS (SPR)
[7] = ratio of KD for GDP-bound NRAS wild-type protein to KD for KRAS
[8] = ratio of KD for HRAS wild-type protein to KD for KRAS

Sequence of GDP-bound NRAS wild-type protein (P01111 whole entry): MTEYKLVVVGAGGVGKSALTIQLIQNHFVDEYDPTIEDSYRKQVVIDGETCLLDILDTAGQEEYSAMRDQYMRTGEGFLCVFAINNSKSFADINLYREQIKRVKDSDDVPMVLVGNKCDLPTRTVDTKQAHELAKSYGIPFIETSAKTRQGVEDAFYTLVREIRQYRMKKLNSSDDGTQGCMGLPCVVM
Sequence of HRAS wild-type protein (P01112 whole entry): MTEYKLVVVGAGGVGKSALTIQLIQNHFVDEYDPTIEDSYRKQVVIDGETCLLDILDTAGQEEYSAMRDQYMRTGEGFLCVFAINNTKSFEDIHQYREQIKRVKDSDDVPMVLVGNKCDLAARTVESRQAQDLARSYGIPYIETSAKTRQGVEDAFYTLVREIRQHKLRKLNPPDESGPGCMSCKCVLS

Row | pIC50 [2] | pIC50 ([2]; NCI-H441 cells, 4 days, CellTiter-Glo, read-out: NCl-H441 IC50) | SMILES | NRAS /KRAS [1, 3] | HRAS /KRAS (HRAS wild-type protein; [4]) | NRAS /KRAS [1, 5] | HRAS /KRAS (HRAS wild-type protein; [6]) | NRAS /KRAS [1, 7] | HRAS /KRAS (HRAS wild-type protein; [8])
1 | 7.41 |  | CCC[C@@H]1C[C@H]2C(=O)NC3(CCC3)C(=O)N(C)[C@@H](C3CCCC3)C(=O)N(C)[C@H](C(=O)N(C)C)CC(=O)N(C)[C@@H](CCC)C(=O)N[C@@H]([C@@H](C)CC)C(=O)N(C)CC(=O)N(C)[C@H]3C/C=C\CCN(C3=O)[C@@H](Cc3ccc(C)cc3)C(=O)N(C)CC(=O)N[C@@H](CCc3ccc(C(F)(F)F)c(Cl)c3)C(=O)N2C1 [PP2238] | A (a compound having 10 or more and less than 20 is denoted as A) | A (a compound having 10 or more and less than 20 is denoted as A) |  |  |  | 
2 | 8.42 |  | CC[C@H](C)[C@@H]1NC(=O)[C@H](CC(F)F)N(C)C(=O)C[C@@H](C(=O)N(C)C)N(C)C(=O)[C@H](C2CCCC2)N(C)C(=O)C2(CC(C)(C)C2)NC(=O)[C@@H]2C[C@H](C)CN2C(=O)[C@H](CCc2cc(F)c(C(F)(F)F)c(F)c2)NC(=O)CN(C)C(=O)[C@H](Cc2ccc(C(F)(F)F)cc2)N2CC/C=C\C[C@@H](C2=O)N(C)C(=O)CN(C)C1=O [PP1658] |  |  | A (a compound having 10 or more and less than 20 is denoted as A) | A (a compound having 10 or more and less than 20 is denoted as A) |  | 
3 | 7.06 |  | CCO[C@@H]1C[C@H]2C(=O)NC3(CCC3)C(=O)N(C)[C@@H](C(CC)CC)C(=O)N(C)C(C(C)C)CC(=O)N(C)[C@@H](CC)C(=O)N[C@@H]([C@@H](C)CC)C(=O)N(C)CC(=O)N(C)[C@H]3C/C=C\CCN(C3=O)[C@@H](Cc3ccc(C(F)(F)F)cc3)C(=O)N(C)CC(=O)N[C@@H](CCc3cc(F)c(C(F)(F)F)c(F)c3)C(=O)N2C1 (stereo partly drawn) [PP1589] |  |  | A (a compound having 10 or more and less than 20 is denoted as A) | A (a compound having 10 or more and less than 20 is denoted as A) |  | 
4 | 8.74 |  | CCCN1C(=O)CN(C)C(=O)CN(C)C(=O)[C@H]([C@@H](C)CC)NC(=O)[C@H](CC(C)C)N(C)C(=O)C[C@@H](C(=O)N(C)C)N(C)C(=O)[C@H](C2CCCC2)N(C)C(=O)C2(CCC2)NC(=O)[C@@H]2CCCN2C(=O)[C@H](CCc2ccc(C(F)(F)F)c(Cl)c2)NC(=O)CN(C)C(=O)[C@@H]1Cc1ccc(C(F)(F)F)cc1 [PP0412] ([NMeL]I[Sar][Sar][NPrPhe(4-CF3)][Sar][hPhe(3-Cl-4-CF3)]P[Ac4c][NMeGly(cPent)][NMeD]-NMe2; lactam N-11) | B (a compound having 3 or more and less than 10 is denoted as B) | C (A compound having a KD ratio of 0.1 or more and less than 3 is denoted as C) |  |  |  | 
5 | 7.77 |  | CCO[C@@H]1C[C@H]2C(=O)NC3(CCC3)C(=O)N(C)[C@@H](C3CCCC3)C(=O)N(C)[C@H](C(=O)N(C)C)CC(=O)N(C)[C@@H](C(C)C)C(=O)N[C@@H]([C@@H](C)CC)C(=O)N(C)CC(=O)N(C)[C@H]3C/C=C\CCN(C3=O)[C@@H](Cc3ccc(C(F)(F)F)cc3)C(=O)N(C)CC(=O)N[C@@H](CCc3cc(F)c(C(F)(F)F)c(F)c3)C(=O)N2C1 [PP1109] |  |  |  |  | A (a compound having 10 or more and less than 20 is denoted as A) | B (a compound having 3 or more and less than 10 is denoted as B)
6 | 8.92 |  | CCCN1C(=O)CN(C)C(=O)CNC(=O)[C@H]([C@@H](C)CC)NC(=O)[C@H](CC(C)C)N(C)C(=O)C[C@@H](C(=O)N(C)C)N(C)C(=O)[C@H](C2CCCC2)N(C)C(=O)C2(CCC2)NC(=O)[C@@H]2CC(F)(F)CN2C(=O)[C@H](CCc2ccc(C(F)(F)F)c(Cl)c2)NC(=O)CN(C)C(=O)[C@@H]1Cc1ccc(C(F)(F)F)cc1 [PP0420] ([NMeL]IG[Sar][NPrPhe(4-CF3)][Sar][hPhe(3-Cl-4-CF3)][Pro(4,4-F2)][Ac4c][NMeGly(cPent)][NMeD]-NMe2; lactam N-11) | B (a compound having 3 or more and less than 10 is denoted as B) | C (A compound having a KD ratio of 0.1 or more and less than 3 is denoted as C) |  |  |  | 
7 | 7.91 |  | CCCN1C(=O)[C@@H]2CCN2C(=O)CN(C2CC2)C(=O)[C@H]([C@@H](C)CC)NC(=O)[C@H](CC(C)C)N(C)C(=O)C[C@@H](C(=O)N2CCOCC2)N(C)C(=O)[C@H](C2CCCC2)N(C)C(=O)C2(CCCC2)NC(=O)[C@@H]2CCCN2C(=O)[C@H](CCc2ccc(C(F)(F)F)c(Cl)c2)NC(=O)CN(C)C(=O)[C@@H]1Cc1ccc(C(F)(F)F)cc1 [PP0273] ([NMeL]I[NcPrGly][Aze][NPrPhe(4-CF3)][Sar][hPhe(3-Cl-4-CF3)]P[Ac5c][NMeGly(cPent)][NMeD]-Morpholide; lactam N-11) |  |  |  |  | C (A compound having a KD ratio of 0.1 or more and less than 3 is denoted as C) | B (a compound having 3 or more and less than 10 is denoted as B)
8 | 8.00 |  | CCCN1C(=O)[C@@H]2CCN2C(=O)[C@H](C)N(C)C(=O)[C@H]([C@@H](C)CC)NC(=O)[C@H](CC(C)C)NC(=O)C[C@@H](C(=O)N2CCOCC2)N(C)C(=O)[C@H](C2CCCC2)N(C)C(=O)C2(CCCC2)NC(=O)[C@@H]2CCCN2C(=O)[C@H](CCc2ccc(C(F)(F)F)c(Cl)c2)NC(=O)CN(C)C(=O)[C@@H]1Cc1ccc(C(F)(F)F)cc1 [PP0154] (LI[NMeA][Aze][NPrPhe(4-CF3)][Sar][hPhe(3-Cl-4-CF3)]P[Ac5c][NMeGly(cPent)][NMeD]-Morpholide; lactam N-11) |  |  |  |  | C (A compound having a KD ratio of 0.1 or more and less than 3 is denoted as C) | B (a compound having 3 or more and less than 10 is denoted as B)
9 | 7.92 |  | CCCN1C(=O)[C@@H]2CCN2C(=O)CN(C)C(=O)[C@H]([C@@H](C)CC)NC(=O)[C@H](CC(C)C)N(C)C(=O)C[C@@H](C(=O)N2CCOCC2)N(C)C(=O)[C@H](C2CCCC2)N(C)C(=O)C2(CCCC2)NC(=O)[C@@H]2C[C@H](C)CN2C(=O)[C@H](CCc2ccc(C(F)(F)F)c(Cl)c2)NC(=O)CN(C)C(=O)[C@@H]1Cc1ccc(C(F)(F)F)cc1 [PP0457] ([NMeL]I[Sar][Aze][NPrPhe(4-CF3)][Sar][hPhe(3-Cl-4-CF3)][Pro(4S-Me)][Ac5c][NMeGly(cPent)][NMeD]-Morpholide; lactam N-11) | C (A compound having a KD ratio of 0.1 or more and less than 3 is denoted as C) | B (a compound having 3 or more and less than 10 is denoted as B) |  |  |  | 
10 | 7.74 |  | CC[C@H](C)[C@@H]1NC(=O)[C@H](CC(C)C)N(C)C(=O)C[C@@H](C(=O)N2CCOCC2)N(C)C(=O)[C@H](C2CCC2)N(C)C(=O)C2(CCCC2)NC(=O)[C@@H]2CCCN2C(=O)[C@H](CCc2cc(F)c(C(F)(F)F)c(F)c2)NC(=O)CN(C)C(=O)[C@H](Cc2ccc(C(F)(F)F)cc2)N2CCCC[C@@H](C2=O)N(C)C(=O)CN(C)C1=O [PP0566] | B (a compound having 3 or more and less than 10 is denoted as B) | B (a compound having 3 or more and less than 10 is denoted as B) |  |  |  | 
11 |  | 8.52 | CCO[C@@H]1C[C@H]2C(=O)NC3(CC(C)(C)C3)C(=O)N(C)[C@@H](C3CCCC3)C(=O)N(C)[C@H](C(=O)N(C)C)CC(=O)N(C)[C@@H](CC(C)C)C(=O)N[C@@H]([C@@H](C)CC)C(=O)N(C)CC(=O)N(C)[C@H]3C/C=C\CCN(C3=O)[C@@H](Cc3ccc(C(C)(F)F)cc3)C(=O)N(C)CC(=O)N[C@@H](CCc3ccc(C(F)(F)F)c(OC)c3)C(=O)N2C1 [PP2690] |  |  |  |  | AA (a compound having 20 or more is denoted as AA) | A (a compound having 10 or more and less than 20 is denoted as A)
12 | 7.69 |  | CCCN1C(=O)[C@@H]2CCN2C(=O)[C@H](C)N(C)C(=O)[C@H]([C@@H](C)CC)NC(=O)[C@H](CC(C)C)N(C)C(=O)C[C@@H](C(=O)N2CCC(C)(C)C2)N(C)C(=O)[C@H](C2CCCC2)N(C)C(=O)C2(CCCC2)NC(=O)[C@@H]2CCCN2C(=O)[C@H](CCc2ccc(C(F)(F)F)c(Cl)c2)NC(=O)CN(C)C(=O)[C@@H]1Cc1ccc(C(F)(F)F)cc1 [PP0186] ([NMeL]I[NMeA][Aze][NPrPhe(4-CF3)][Sar][hPhe(3-Cl-4-CF3)]P[Ac5c][NMeGly(cPent)][NMeD]-X11; lactam N-11) |  |  |  |  | C (A compound having a KD ratio of 0.1 or more and less than 3 is denoted as C) | B (a compound having 3 or more and less than 10 is denoted as B)
13 | 7.70 |  | CCO[C@@H]1C[C@H]2C(=O)NC3(CCC3)C(=O)N(C)[C@@H](C3CCCC3)C(=O)N(C)[C@H](C(=O)N3CCOCC3)CC(=O)N(C)[C@@H](C)C(=O)N[C@@H]([C@@H](C)CC)C(=O)N(C)CC(=O)N(C)[C@H]3CCCCCN(C3=O)[C@@H](Cc3ccc(C(F)(F)F)cc3)C(=O)N(C)CC(=O)N[C@@H](CCc3cc(F)c(C(F)(F)F)c(F)c3)C(=O)N2C1 [PP0474] | B (a compound having 3 or more and less than 10 is denoted as B) | B (a compound having 3 or more and less than 10 is denoted as B) |  |  |  | 

Row | SMILES | pIC50 [2] | pIC50 ([2]; NCI-H441 cells, 4 days, CellTiter-Glo, read-out: NCl-H441 IC50) | NRAS /KRAS [1, 3] | HRAS /KRAS (HRAS wild-type protein; [4]) | NRAS /KRAS [1, 5] | HRAS /KRAS (HRAS wild-type protein; [6]) | NRAS /KRAS [1, 7] | HRAS /KRAS (HRAS wild-type protein; [8])
14 | CCC[C@H]1C(=O)N[C@@H]([C@@H](C)CC)C(=O)N(C)CC(=O)N(C)[C@H]2C/C=C\CCN(C2=O)[C@@H](Cc2ccc(C)cc2)C(=O)N(C)CC(=O)N[C@@H](CCc2cc(F)c(C(F)(F)F)c(F)c2)C(=O)N2C[C@H](OCC)C[C@H]2C(=O)N(C)C2(CCC2)C(=O)N(C)[C@@H](C2CCCC2)C(=O)N(C)[C@H](C(=O)N2CCCCC2)CC(=O)N1C [PP3119] | 8.46 |  |  |  |  |  | A (a compound having 10 or more and less than 20 is denoted as A) | A (a compound having 10 or more and less than 20 is denoted as A)
